Laboratory results from patent US10201175B2, “N-acylated 1-aminocycloalkyl carboxylic acids as food flavouring compounds” (Givaudan S.A., priority 2012, dated 2019).

Tests used:
[1] = Expert taster evaluation, test in mayonnaise; conditions: 0.5 ppm in low fat mayonnaise (27% fat)
Method: (§1) Samples were prepared and evaluated by expert tasters. Tasters were asked to describe the samples focusing on authentic taste, mouthfeel, fullness, salivation, salty-ness, umami, sweetness, juiciness, richness, long lastingness and fattiness.
Fat levels between 10-80%
Low fat Mayonnaise (27% Fat)

[2] = Expert taster evaluation, test in jus and fonds; conditions: 40 ppb in beef jus
Method: as §1

[3] = Expert taster evaluation, test in dressings; conditions: 0.5 ppm in low fat salad dressing (13.6% fat)
Method: as §1
Low fat salad dressing (13.6% Fat)

[4] = Expert taster evaluation, test in cheese sauce; conditions: 0.5 ppm in cheese sauce, 5% fat, 1.6% salt
Method: as §1
Cheese sauce: 5% fat 1.6% salt

[5] = Expert taster evaluation, test in cheese (spreadable cheese ERU); conditions: 0.5 ppm in spreadable cheese ERU
Method: as §1

[6] = Expert taster evaluation, test in fish sauce; conditions: 0.5 ppm in fish sauce; salt level in application 0.3-1.0%
Method: as §1
(§2) Salt level pure product between 5-40%
(§3) Salt level in application 0.3-1.0%

[7] = Expert taster evaluation, test in soups and bouillons; conditions: 0.7% salt, 0.5% fat
Method: as §1
Test in Soups and Bouillons
Standard Chicken bouillon base

[8] = Expert taster evaluation, test on Kikkoman soy sauce low salt; conditions: 0.5 ppm in Kikkoman soy sauce low salt; salt level in application 0.3-1.0%
Method: as §1
Test on Kikkoman soy sauce low salt
as §2, §3

SMILES: CCCCCCCC/C=C\CCCCCCCC(=O)NC1(C(=O)O)CC1 [C18:1-ACCA, N-oleoyl 1-amino-cyclopropyl carboxylic acid]
- taste description by expert tasters [1]: Nice balanced, full mouthfeel, increased eggyness
- taste description by expert tasters [2]: more salty, fatty, total profile is enhanced
- taste description by expert tasters [3]: Increased mouthfeel body less acidic
- taste description by expert tasters [4]: Strong umami, cheese bite, expanding
- taste description by expert tasters [5]: Strong umami, lingering cheese bite
- taste description by expert tasters [6]: Strong saltiness lingering, strong body mouthfeel
- taste description by expert tasters ([7]; 0.2 ppm in standard chicken bouillon base): Saltier, Stronger and more umami
- taste description by expert tasters ([7]; 0.5 ppm in standard chicken bouillon base): More body and fatty notes, salivating and good aftertaste
- taste description by expert tasters [8]: Strong upfront saltiness lingering, very strong saltiness
